Results taken from paper PMC6656724 (Communications Biology, 2019).
Several values for one entry are separate records, joined by “and”; a condition that tells them apart may be missing. Equal values may be shown once.

Columns and labels:
Homo sapiens KMO (HsKMO) = target: T1, Homo sapiens KMO (HsKMO) (Homo sapiens, UniProt O15229); assay: KMO inhibition assay, NADPH oxidation at 340 nm (HsKMO); assay type: biochemical
T1 construct: GST; made in house
From the text: (§1) A combination of ligand- and structural-based virtual screening approaches (see supporting information for details) was used to identify an initial library of >1000 compounds that may be suitable as potential KMO inhibitors. These compounds were screened for inhibition of Pseudomonas fluorescens KMO (PfKMO) and Homo sapiens KMO (HsKMO) using high-throughput assays by monitoring the time-dependent oxidation of NADPH at 340 nm[23].
(§2) Small-molecule compounds were supplied by Biofocus (Charles River Laboratories International Inc., MA, USA), which were identified in silico as potential inhibitors (further details are described in the Supplementary Methods). Initial inhibition assays were performed against Pseudomonas fluorescens KMO (PfKMO) and Homo sapiens KMO (HsKMO) by monitoring the time-dependent absorbance change of NADPH at 340 nm. Purified KMO protein (200 nM) was incubated in 100 µL reaction buffer (20 mM potassium phosphate pH 8.0, 7 mM 2-mercaptoethanol) containing 100 μM NADPH, 100 μM L-Kyn and 20 μM potential inhibitors in 96-well plates. […] The inhibitors identified in the initial screens were validated and re-assayed individually in a 1 cm path-length quartz micro cuvette. […] Suppliers for target inhibitor compounds are listed in Supplementary Table 11.
Supplementary Figure 1. Examples of inhibition data used to generate IC50 values for selected KMO inhibitors.
(§3) NADPH (100µM) were added into reaction buffer (HsKMO: 20mM potassium phosphate pH 8.0, 7 mM 2-mercaptoethanol; PfKMO: 20 mM HEPES, 10mM sodium acetate, pH 7.5, 2mM DTT). The reaction was initiated by the addition of KMO enzyme (HsKMO: 0.5µM; PfKMO: 0.1 µM). KMO activity was measured in the presence of a range of inhibitor concentrations. […]
(§4) 3.5 Steady-state enzymatic assays.
(§5) Initial screening assays and determination of IC50 values for each potential inhibitor compound were carried out using either 0.1 µM PfKMO or 0.5 µM HsKMO at fixed […]
(§6) (HsKMO: 20 mM potassium phosphate pH 8.0, 7 mM 2-mercaptoethanol; PfKMO:
(§7) 20 mM HEPES, 10 mM sodium acetate, pH 7.5, 2 mM DTT). KMO activity was measured in the presence of a range of inhibitor concentrations by monitoring the […]
(§8) consumption of NADPH at 340 nm upon addition of enzyme via a Cary 50 UV-Vis spectrophotometer (Agilent Technologies). Rates were determined from linear regression fits to the initial linear portion of the curves. All measurements were performed in triplicate. The IC50 values for inhibitors were obtained by plotting the percentage inhibition versus the inhibitor concentration and fitting to the Morrison equation16 (equation 1) using Origin 9.0 Software (OriginLab, Northampton, MA).
E + I + K!"" − E + I + K!"" ! − 4[E][I] where v0 is the enzyme activity without inhibitor, vi is the enzyme activity with ligand

[1] = target: T2, Pseudomonas fluorescens KMO (PfKMO) (Pseudomonas fluorescens, UniProt Q84HF5, C252S/C461S); assay: biochemical
T2 construct: made in house; host or cells: E. coli BL21 (DE3)
From the text: as §1, §2
as §3, with “Supplementary Figure 1. Examples of inhibition data used to generate IC50 values for selected KMO inhibitors. Fixed concentration of L -KYN (200 µM) and NADPH” for “NADPH”
as §4, §5, §6, §7
as §8, with “MA). […]” for “MA).”

PfKMO [2] = target: T3, PfKMO (Pseudomonas fluorescens, UniProt Q84HF5, C252S/C461S); assay: biochemical; conditions: for Mechanism of inhibition with respect to L-KYN / Mechanism of inhibition with respect to NADPH: PfKMO
T3 construct: made in house; host or cells: E. coli BL21 (DE3)
Experimental: saturating concentrations of the L-KYN and NADPH substrates. Data are plotted […]
as §8
E + I + K!"" − E + I + K!"" ! − 4[E][I] where v0 is the enzyme activity without inhibitor, vi is the enzyme activity with ligand concentration [I], [E] is the enzyme concentration, [I] is the inhibitor concentration, K!"" is the apparent inhibition constant and IC = K!"" + [!] . If K!"" ≫ [!], IC ≈ […]
where Ki is the inhibition constant, [S] is the substrate concentration used in the assay and Km is the Michaelis-Menten constant17. […]
between Ki and Ki apparent values, as the conditions for measuring IC50 are different, Ki values can be used to compare with other reported KMO inhibitors.
Steady-state kinetic parameters for PfKMO were calculated by measuring initial rates […]
the observed rate of turnover (v) versus the varied substrate concentration were fitted to equation 2 using Origin 9.0 Software (OriginLab, Northampton, MA).
A B + K!! B + K!! A + K!!K!! where v is the initial rate of activity, Vmax is the maximum velocitie of the reaction, [A] and [B] are the substrate concentration, K!! and K!! are the Michaelis-Menten constant for different substrate and K!! is the inhibition (binding) constant of substrate A to the free enzyme while forming transitory complexes.18
Product inhibition studies were carried out by measuring reaction rates at varying […]
one substrate and varying concentrations of the other substrate. Inhibition studies with target compounds were carried out by measuring reaction rates at varying inhibitor concentrations at saturating concentrations of one substrate and varying concentrations of the other substrate. […]
were used to distinguish between different types of inhibition. The data were fitted to a straight line defined by the Lineweaver-Burke equation (equation 4), with the y intercept providing 1/Vmax and the x intercept giving -1/Km. […]

PfKMO [3] = target: T3, PfKMO; assay: Stopped-flow reduction of flavin cofactor by NADPH; assay type: biochemical; conditions: for Reduction rate of flavin cofactor: PfKMO with saturating ligand, 2 mM NADPH, 25 °C, anaerobic; for Stimulation of KMO reduction by NADPH: rapid mixing stopped-flow assays
Experimental: The reduction rate of the flavin cofactor by NADPH was measured using a stopped-flow spectrophotometer (Applied Photophysics Ltd), which was housed in an anaerobic glovebox (Belle Technology). […] The reduction of the flavin was monitored by the decrease in the absorbance of the flavin at 450 nm and transients were fitted to either double or triple exponentials.
Supplementary Figure 13. Reduction of flavin cofactor by NADPH in the presence and absence of ligands. Anaerobic mixtures of 10 µM PfKMO with or without ligand were mixed against anaerobic 2 mM NADPH on a stopped-flow spectrophotometer at 25℃. a, 10 µM PfKMO mixed with 2 mM NADPH; b, 10 µM

[4] = test system: KMO activity in the striatum; assay: De novo 3-HK synthesis after intrastriatal [5-3H]-kynurenine; assay type: in vivo, Sprague–Dawley rats
[5] = Mouse brain penetration study; assay type: in vivo, female C57BL6 mice; conditions: mouse
Experimental: Inhibitor 1 (and prodrugs 1a, 1b, 1c and 1d) was dosed as a bolus solution intravenously at 1 mg free base/kg (dose volume: 5 mL/kg; dose vehicle: 5% DMSO; 95% saline (inhibitor 1) or 5% DMSO; 40% PEG400; 55% MilliQ H2O (prodrugs 1a, 1b, 1c and 1d)) to female C57BL6 mice (n = 6). At 5 min and 60 min following intravenous bolus injection of test compound, mice (n = 3/timepoint) were placed under terminal anaesthesia with isofluorane. A blood sample was taken by cardiac puncture, the […] decapitated and the brain removed. Brain weight was noted and each brain homogenised with two volumes of methanol (2 mL/g brain). Each blood sample was diluted with distilled water (1:10). Diluted blood and the brain homogenates were then stored frozen until preparation and analysis by UPLC-MS/MS. For each mouse at each timepoint for 1, the concentration in brain (ng/g) was divided by the concentration in blood (ng/mL) to give a brain:blood ratio. The mean value obtained was quoted. For prodrugs 1a to 1d, only the concentration of 1 in blood (ng/mL) and brain (ng/g) was reported.
A rapid and sensitive ultra-performance chromatography/tandem mass spectrometry (UPLC-MS/MS) method was developed and validated for the determination of inhibitor 1 and prodrug 1b (rat only). Chromatographic analysis was conducted on a Waters Acquity™ UPLC system. Chromatographic separation was performed with an Acquity™ UPLC BEH C18 column (50 × 2.1 mm, 1.7 µm, 130Å; Waters Corp.) maintained at 40 °C in a column oven. The mobile phase consisted of water with 0.01% formic acid and ACN with 0.01 % formic acid and it was delivered at a flow rate of 0.6 mL/min under gradient eluent conditions within an analysis cycle time of 3 min. The mass detection was conducted on a Waters Xevo™ TQs mass spectrometer equipped with a ScanWave™ technology. Quantitation of the analyte was performed in electrospray positive ionisation mode (ESI^+) using multiple reaction monitoring. The optimised fragmentation transition was m/z = 270.17 → 196.19 (mouse) or m/z = 270.17 → 223.76 (rat) for inhibitor 1 and m/z = 297.83 → 195.74 for prodrug 1b (rat).
Sample extraction for blood and brain homogenate was by protein precipitation (1:3 or 1:6) using ACN containing suitable internal standard. Extracts were vortexed followed by centrifugation (2800 rpm for 10 min). An aliquot of each supernatant was then diluted two-fold in distilled water ready for analysis by UPLC-MS/MS.
The weighted 1/x^2 calibration line was linear in the dynamic range of 1–5000 ng/mL for inhibitor 1 and 1–1000 ng/mL for prodrug 1b with a correlation coefficient (r^2) > 0.99 (inhibitor 1) or 0.98 (prodrug 1b). The quality control samples (QC) were prepared by using the same spiking scheme as the calibration samples and up to four different target concentration brain levels: 2 ng/mL (LQC), 40 ng/mL (MQC), 100 ng/mL (HQC) and 2000 ng/mL. Data collection, peak integration and calculations were performed using MassLynx software, version 2.1.

[6] = 1 mg/kg i.v., 5 min, single mice, analyte inhibitor 1 (also after prodrugs) or 1h

T2 sequence (Q84HF5 whole entry C252S/C461S): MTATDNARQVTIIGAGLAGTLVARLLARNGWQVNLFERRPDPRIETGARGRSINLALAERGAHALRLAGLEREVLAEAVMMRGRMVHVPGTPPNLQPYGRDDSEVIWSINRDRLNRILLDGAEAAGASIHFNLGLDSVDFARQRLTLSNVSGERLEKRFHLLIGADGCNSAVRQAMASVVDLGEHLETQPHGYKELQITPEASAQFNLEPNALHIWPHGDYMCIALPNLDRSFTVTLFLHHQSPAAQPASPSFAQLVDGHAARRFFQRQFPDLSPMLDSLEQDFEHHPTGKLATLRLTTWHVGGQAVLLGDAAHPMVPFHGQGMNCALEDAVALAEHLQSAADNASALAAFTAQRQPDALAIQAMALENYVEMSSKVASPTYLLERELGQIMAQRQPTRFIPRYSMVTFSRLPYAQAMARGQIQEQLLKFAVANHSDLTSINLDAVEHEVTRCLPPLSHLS
T3 sequence (Q84HF5 whole entry C252S/C461S): as above
T1 sequence (O15229 whole entry): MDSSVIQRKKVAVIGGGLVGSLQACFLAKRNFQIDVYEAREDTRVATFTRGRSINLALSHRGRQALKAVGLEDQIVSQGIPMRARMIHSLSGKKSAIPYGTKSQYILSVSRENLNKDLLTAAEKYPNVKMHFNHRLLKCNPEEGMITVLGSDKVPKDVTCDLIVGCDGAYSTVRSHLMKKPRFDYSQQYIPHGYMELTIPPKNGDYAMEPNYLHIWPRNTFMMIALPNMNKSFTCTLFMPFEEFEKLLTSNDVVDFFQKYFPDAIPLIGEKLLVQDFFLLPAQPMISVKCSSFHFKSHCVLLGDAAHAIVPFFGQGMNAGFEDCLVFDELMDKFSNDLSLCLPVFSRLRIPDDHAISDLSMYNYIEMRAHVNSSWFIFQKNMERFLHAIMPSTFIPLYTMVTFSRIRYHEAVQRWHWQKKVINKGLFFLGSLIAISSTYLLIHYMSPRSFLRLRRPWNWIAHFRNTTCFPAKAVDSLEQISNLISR

Q: Which results are given for `Cn1c(C(=O)N[C@@H](C(=O)O)c2ccccc2)cc2cc(Cl)ccc21` [compound 4, (R)-2-(5-chloro-1-methyl-1H-indole-2-carboxamido)-2-phenylacetic acid]?
A: IC50 (Homo sapiens KMO (HsKMO)): 6.1 µM; IC50 [1]: 59.8 ± 7.14 µM; Ki (PfKMO [2]): 3 ± 0.24 µM; Mechanism of inhibition with respect to L-KYN (PfKMO [2]): competitive inhibitor; Mechanism of inhibition with respect to NADPH (PfKMO [2]): mixed type inhibitors; Reduction rate of flavin cofactor (PfKMO [3]): 0.03 ± 0.005 s⁻¹; Stimulation of KMO reduction by NADPH (PfKMO [3]): do not stimulate

Q: With `Nc1ccccc1C(=O)C[C@H](N)C(=O)O` [L-KYN, reference compound] as the molecule, how does the Km (PfKMO [2]; substrates of PfKMO) read?
A: 12.1 ± 1.4 µM

Q: And the “Reduction rate of flavin cofactor” value (PfKMO [3])?
A: 339 ± 16.6 s⁻¹

Q: With `COc1ccc(S(=O)(=O)Nc2nc(-c3cccc([N+](=O)[O-])c3)cs2)cc1OC` [Ro 61-8048] as the molecule, how does the “Reduction of [3H]-3-HK” value ([4]; rat striatum, 50 mg/kg i.v., 1 h) read?
A: no reduction

Q: And the “Percentage of [5-3H]-KYN that is metabolized into [3H]-3-HK” value ([4]; striatum of awake rats, 1 h after 50 mg/kg i.v., single rats)?
A: 2.76% and 5.1% and 4.48% and 5.65% and 2.31% and 2.1%

Q: Which results are given for `Cc1cc2c(c(C)c1Cl)N(CC(=O)OC(C)(C)C)C(=O)CO2` [1d]?
A: IC50 (Homo sapiens KMO (HsKMO)): > 300 µM; IC50 [1]: ~200 µM; In blood [5, 6]: ≤ LLoQ; In brain [5, 6]: ≤ LLoQ; In brain ([5]; 1 mg/kg i.v., 60 min, single mice, analyte inhibitor 1 (also after prodrugs) or 1h): ≤ LLoQ; Release of 1 in blood and brain ([5]; prodrug 1 mg/kg i.v. bolus): undetectable

Q: What does the source list for `O=C(O)c1ccc(-c2ccc(Cl)c(Cl)c2)o1` [compound 13, 5-(3,4-dichlorophenyl) furan-2-carboxylic acid]?
A: IC50 (Homo sapiens KMO (HsKMO)): 63.1 µM; IC50 [1]: 0.4 ± 0.02 µM; Ki (PfKMO [2]): 0.02 ± 0.001 µM; Mechanism of inhibition with respect to L-KYN (PfKMO [2]): competitive inhibitor; Mechanism of inhibition with respect to NADPH (PfKMO [2]): mixed type inhibitors; Reduction rate of flavin cofactor (PfKMO [3]): 0.06 ± 0.002 s⁻¹; Stimulation of KMO reduction by NADPH (PfKMO [3]): do not stimulate

Q: With `O=C(O)c1ccc(-c2cccc(Cl)c2Cl)o1` [compound 9, 5-(2,3-dichlorophenyl) furan-2-carboxylic acid] as the molecule, how does the IC50 (Homo sapiens KMO (HsKMO)) read?
A: 39.6 µM

Q: What about the IC50 [1] of the same molecule?
A: 4.3 ± 0.2 µM

Q: What about the Ki (PfKMO [2]) of the same molecule?
A: 0.15 ± 0.01 µM

Q: And the “Mechanism of inhibition with respect to L-KYN” value (PfKMO [2])?
A: competitive inhibitor

Q: What about the “Mechanism of inhibition with respect to NADPH” value (PfKMO [2]) of the same molecule?
A: competitive inhibitor

Q: What about the “Reduction rate of flavin cofactor” value (PfKMO [3]) of the same molecule?
A: 0.03 ± 0.001 s⁻¹

Q: And the “Stimulation of KMO reduction by NADPH” value (PfKMO [3])?
A: do not stimulate
